Data as given in PubChem BioAssay AID1963826 (Molecular Pharmacology Branch, DTP, NCI, 2024).
“And” between values parts separate entries of the source, which are not always exact repeats. Equal values may be shown once.

Tested on: 926638-142-R-J1-PDC complex spheroid viability
Test: Anticancer human tumor 926638-142-R-J1-PDC patient-derived endometrial carcinoma cell line growth inhibition [POLQ]
Settings: for viability, T/C: stronger effect = lower value; for IC50: curve of compound
Procedure: Multicellular complex tumor spheroid response to Polymerase (POL) inhibitors (novobiocin, ART-558, RP6685) in combination with a variety of drugs and investigational agents in selected tumor cell lines
The POL inhibitors (novobiocin, ART-558, and RP6685) were evaluated both individually and in combination with standard of care and investigational anticancer small molecules within a complex spheroid model of solid tumors. . Complex spheroids include a stromal component modeled by human endothelial cells (HUVEC) and fibroblasts modeled by human mesenchymal stem cells (MSCs). The concentration ranges selected for each drug and investigational agent were based upon clinically achievable concentrations if the clinical Cmax of the agent was known.
Compounds. The drugs and investigational agents: novobiocin (NSC847541), ART-558 (NSC835418), RP-6685 (NSC848927), peposertib (NSC802822), ceralasertib (NSC780249), elimusertib (NSC800525), camonsertib (NSC841442), AZD-1390 (NSC803789), olaparib (NSC753686), talazoparib (NSC767125), rucaparib (NSC756644), sotorasib (NSC818433), MRTX-1133 (NSC836407), SN-38 (NSC673596), topotecan (NSC609699), epotoside (NSC141540), doxorubicin (NSC123127), gemcitabine (NSC613327), 5-fluorouracil (NSC19893), paclitaxel (NSC125973), vemurafenib (NSC761431), MSA-2 (NSC828583), SN-011 (NSC837082), adavosertib (NSC754352), prexasertib (NSC758257), carboplatin (NSC241240) and oxaliplatin (NSC266046), were obtained from the National Cancer Institute (NCI) Developmental Therapeutics Program Chemical Repository (21). The FDA-approved anticancer drug set is available from the Developmental Therapeutics Program at https://dtp.cancer.gov/organization/dscb/obtaining/. […] The stock solutions were prepared in dimethyl sulfoxide (DMSO, Sigma-Aldrich, St. Louis, MO, cat. D2650), except for the platinum compounds which were prepared in saline (Quality Biological, Gaithersburg, MD, cat. 114-055-101), at 800-fold the tested concentration and stored at -70 degrees C prior to their use. All drugs and investigational agents were tested over a range starting from a high concentration at or near the clinical Cmax and decreasing in half-log increments. If the clinical Cmax for an agent had not been determined, the highest concentration tested was 10 microM, except for SN-38, which was tested at a high concentration of 1 microM.
Cell Culture. All cells were maintained in an incubator at 37 degrees C and 5% CO2 with 95% humidity. The PDC lines were cultured according to standard operating procedures established by the NCI PDMR (https://pdmr.cancer.gov). Table 3 of the manuscript, lists the cell lines along with the number of the three cell types plated to form the mct-spheroids and media for tumor cell growth. After thawing, all PDC lines, except 997537-175-T-J1-PDC and 415267-285-R-J2-PDC, were cultured in Matrigel-coated flasks prepared with a working solution of 1X Ham's F-12 nutrient mix, without supplementation (Thermo Fisher Scientific, cat. 11765054), 100 U/mL penicillin-streptomycin (Thermo Fisher Scientific, cat. 15140122), and 2.5% Matrigel (Corning Inc., Corning, NY, cat. 354248) for the first three passages. The two PDC lines 997537-175-T-J1-PDC and 415267-285-R-J2-PDC were cultured on uncoated flasks. The 857933-349-R-J2-PDC line was cultured in 6C/Colon 1B media containing advanced DMEM/F-12 (Thermo Fisher Scientific, cat. 12634028), 10 mM HEPES (Thermo Fisher Scientific, cat. 15630080), 1X GlutaMAX supplement (Thermo Fisher Scientific, cat. 35050061), 0.1 mg/mL primocin (InvivoGen, San Diego, CA, cat. ant-pm-2), 10% defined fetal bovine serum, heat inactivated (HyClone Laboratories Inc., Logan, UT, cat. SH30070.03HI), 50% L-WRN conditioned media (ATCC, cat. CRL-3276), 1.25 mM N-Acetyl-L-cysteine (Sigma-Aldrich, cat. A9165), 10 mM nicotinamide (Sigma-Aldrich, cat. N0636), 1X B-27 supplement (Thermo Fisher Scientific, cat. 17504044), 1X N-2 supplement (Thermo Fisher Scientific, cat. […]
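Note: spheroids exposed to drugs for one week before readout.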
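Throughout, for viability, T/C: percent viability relative to DMSO vehicle control wells set as 100%.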

Structure (SMILES): C#Cc1c(F)ccc2cc(O)cc(-c3ncc4c(N5CC6CCC(C5)N6)nc(OCC56CCCN5CC(F)C6)nc4c3F)c12 (stereo unspecified)
- viability, T/C (compound 0.0316 µM): 85.1% and 98.5% and 86.6%
- viability, T/C (compound 0.1 µM): 88.2% and 90.2% and 93.3%
- viability, T/C (compound 0.316 µM): 79.4% and 92.4% and 73.8%
- viability, T/C (compound 1 µM): 78.3% and 69.2% and 77.4%
- viability, T/C (compound 3.16 µM): 65.5% and 80.2% and 60.2%
- viability, T/C (compound 10 µM): 52.5% (2×) and 67.8%
- IC50: > 10000 nM

Structure (SMILES): C=CC(=O)N1CCN(c2nc(=O)n(-c3c(C)ccnc3C(C)C)c3nc(-c4c(O)cccc4F)c(F)cc23)C(C)C1 (stereo unspecified)
- viability, T/C (compound 0.0316 µM): 73.8% and 100% and 104%
- viability, T/C (compound 0.1 µM): 88.7% and 83.5% and 89.7%
- viability, T/C (compound 0.316 µM): 75.7% and 108% and 103%
- viability, T/C (compound 1 µM): 82.7% and 84.2% and 86.3%
- viability, T/C (compound 3.16 µM): 72.6% and 88% and 81%
- viability, T/C (compound 10 µM): 58.7% and 55% and 55.7%
- IC50: > 10000 nM

Structure (SMILES): C=CCn1c(=O)c2cnc(Nc3ccc(N4CCN(C)CC4)cc3)nc2n1-c1cccc(C(C)(C)O)n1
- viability, T/C (compound 0.00316 µM): 85% and 93.8% and 95.4%
- viability, T/C (compound 0.01 µM): 80.4% and 77.2% and 83.5%
- viability, T/C (compound 0.0316 µM): 99.2% and 71.9% and 92.3%
- viability, T/C (compound 0.1 µM): 95.8% and 78.3% and 77%
- viability, T/C (compound 0.316 µM): 47.6% and 50.2% and 49%
- viability, T/C (compound 1 µM): 36.5% and 43.9% and 48.2%
- IC50: 296 nM and 541 nM and 300 nM

Structure (SMILES): CC(=O)O[C@H]1C(=O)[C@@]2(C)[C@H]([C@H](OC(=O)c3ccccc3)[C@]3(O)C[C@H](OC(=O)[C@H](O)[C@@H](NC(=O)c4ccccc4)c4ccccc4)C(C)=C1C3(C)C)[C@]1(OC(C)=O)CO[C@@H]1C[C@@H]2O
- viability, T/C (compound 0.00949 µM): 82.5% and 94% and 68.4%
- viability, T/C (compound 0.03 µM): 63.2% and 60.2% and 77.5%
- viability, T/C (compound 0.0949 µM): 57.1% and 53.2% and 62.2%
- viability, T/C (compound 0.3 µM): 55% and 53.9% and 68.9%
- viability, T/C (compound 0.949 µM): 61.5% and 52.6% and 56%
- viability, T/C (compound 3 µM): 44.7% and 45.7% and 57.5%
- IC50: > 3000 nM

Structure (SMILES): CC(C)n1c(=O)n(C)c2cnc3cc(F)c(-c4ccc(OCCCN5CCCCC5)nc4)cc3c21
- viability, T/C (compound 0.0316 µM): 98.1% and 96.9% and 85.4%
- viability, T/C (compound 0.1 µM): 99.6% and 92.2% and 101%
- viability, T/C (compound 0.316 µM): 78.3% and 94.7% and 126%
- viability, T/C (compound 1 µM): 101% and 93.6% and 113%
- viability, T/C (compound 3.16 µM): 89.7% and 80.9% and 94.1%
- viability, T/C (compound 10 µM): 51.1% and 73.2% and 92.8%
- IC50: > 10000 nM

Structure (SMILES): CC1COCCN1c1cc(-c2ccnn2C)c2ccnc(-c3ccn[nH]3)c2n1 (stereo unspecified)
- viability, T/C (compound 0.0316 µM): 83.5% and 103% and 85.4%
- viability, T/C (compound 0.1 µM): 79.7% and 81.4% and 63.6%
- viability, T/C (compound 0.316 µM): 55.4% and 57.6% and 51.2%
- viability, T/C (compound 1 µM): 31.7% and 36.2% and 33%
- viability, T/C (compound 3.16 µM): 13.4% and 11.8% and 14.9%
- viability, T/C (compound 10 µM): 6.95% and 8.69% and 9.29%
- IC50: 435 nM and 450 nM and 287 nM

Structure (SMILES): CC1COCCN1c1cc(C2(O)CC3CCC(C2)O3)c2cnn(-c3ccn[nH]3)c2n1 (stereo unspecified)
- viability, T/C (compound 0.0316 µM): 91.2% and 96.2% and 105%
- viability, T/C (compound 0.1 µM): 64.1% and 73.2% and 58.2%
- viability, T/C (compound 0.316 µM): 37% and 33.6% and 36.9%
- viability, T/C (compound 1 µM): 12.2% and 13.1% and 15.8%
- viability, T/C (compound 3.16 µM): 6.85% and 6.69% and 9.86%
- viability, T/C (compound 10 µM): 2.36% and 3.68% and 4.18%
- IC50: 178 nM and 198 nM and 156 nM

Structure (SMILES): CC1COCCN1c1cc(C2(S(C)(=N)=O)CC2)nc(-c2ccnc3[nH]ccc23)n1 (stereo unspecified)
- viability, T/C (compound 0.0316 µM): 103% and 96.2% and 125%
- viability, T/C (compound 0.1 µM): 100% and 97.9% and 87.2%
- viability, T/C (compound 0.316 µM): 94.2% and 87.3% and 90%
- viability, T/C (compound 1 µM): 88.5% and 93.7% and 95%
- viability, T/C (compound 3.16 µM): 64.7% and 71.3% and 62.5%
- viability, T/C (compound 10 µM): 32.1% and 35.3% and 33.8%
- IC50: 5380 nM and 6230 nM and 5460 nM

Structure (SMILES): CCCS(=O)(=O)Nc1ccc(F)c(C(=O)c2c[nH]c3ncc(-c4ccc(Cl)cc4)cc23)c1F
- viability, T/C (compound 0.0316 µM): 104% and 88.4% and 90.9%
- viability, T/C (compound 0.1 µM): 107% and 99.6% and 92.5%
- viability, T/C (compound 0.316 µM): 96.6% and 97% and 86%
- viability, T/C (compound 1 µM): 98.3% and 106% and 94.4%
- viability, T/C (compound 3.16 µM): 88.2% and 76.9% and 82%
- viability, T/C (compound 10 µM): 50.4% and 47.4% and 51.5%
- IC50: > 10000 nM and 9030 nM

Structure (SMILES): CC[C@@]1(O)C(=O)OCc2c1cc1n(c2=O)Cc2cc3c(CN(C)C)c(O)ccc3nc2-1
- viability, T/C (compound 0.000316 µM): 92.4% and 102% and 103%
- viability, T/C (compound 0.001 µM): 87.4% and 90.6% and 84.2%
- viability, T/C (compound 0.00316 µM): 86.8% and 84.1% and 78.3%
- viability, T/C (compound 0.01 µM): 72.1% and 81.6% and 70.2%
- viability, T/C (compound 0.0316 µM): 68.5% and 73.5% and 62%
- viability, T/C (compound 0.1 µM): 43.1% and 49% and 41.8%
- IC50: 72.3 nM and > 100 nM and 63.1 nM

Structure (SMILES): CCc1c2c(nc3ccc(O)cc13)-c1cc3c(c(=O)n1C2)COC(=O)[C@]3(O)CC
- viability, T/C (compound 0.00316 µM): 65.4% and 62.4% and 71.3%
- viability, T/C (compound 0.01 µM): 46.9% and 39.7% and 51.1%
- viability, T/C (compound 0.0316 µM): 39% and 39.6% and 38.6%
- viability, T/C (compound 0.1 µM): 24.9% and 26.6% and 21%
- viability, T/C (compound 0.316 µM): 10.9% and 16.3% and 8.99%
- viability, T/C (compound 1 µM): 4.17% and 12.3% and 5.58%
- IC50: 10 nM and 7.31 nM and 12.5 nM

Structure (SMILES): CCc1cc2c(N3CCc4c(cc(Cn5ccnc5)cc4-c4cn(C)nc4C(F)(F)F)C3=O)cc(C)nc2c(OC)n1
- viability, T/C (compound 0.0316 µM): 76.6% and 76.9% and 72.4%
- viability, T/C (compound 0.1 µM): 62.2% and 66.4% and 61.3%
- viability, T/C (compound 0.316 µM): 52.8% and 62% and 51.8%
- viability, T/C (compound 1 µM): 42% and 51.2% and 48.4%
- viability, T/C (compound 3.16 µM): 26.5% and 38% and 43%
- viability, T/C (compound 10 µM): 23.4% and 35.1% and 33.4%
- IC50: 373 nM and 987 nM and 595 nM

Structure (SMILES): CCc1cc2c(N3CCc4c(cc(Cn5ccnc5)cc4-c4cn(C)nc4C(F)(F)F)C3=O)ccnc2c(OC)n1
- viability, T/C (compound 0.0316 µM): 60.9% and 84.9% and 79%
- viability, T/C (compound 0.1 µM): 79.4% and 67.7% and 61%
- viability, T/C (compound 0.316 µM): 48% and 59.9% and 64.8%
- viability, T/C (compound 1 µM): 43.1% and 45% and 49.4%
- viability, T/C (compound 3.16 µM): 25.4% and 39.3% and 37.3%
- viability, T/C (compound 10 µM): 27.3% and 29.5% and 28.1%
- IC50: 456 nM and 714 nM and 921 nM
